Assay results as given in patent publication US10508104B2, “6-hydroxy-5-(phenyl/heteroarylsulfonyl)pyrimidin-4(1H)-one as APJ agonists” (Bristol-Myers Squibb Company, priority 2016, dated 2019).

biological target: human APJ receptor (Homo sapiens (Human), UniProt P35414); experiment: Intracellular cAMP accumulation assay (APJ hcAMP, HTRF); type: cell-based; details: HEK293 cells stably expressing human APJ receptor; inhibition of forskolin-mediated cAMP production; read-out: Human APJ cAMP EC50 Potency range
How it was run: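 HEK293 cells stably expressing human APJ, 5,000 per well, incubated 30 min at rt with compound, […] and 2 μM forskolin. cAMP measured by HTRF against a cAMP standard curve as inhibition of forskolin-driven production. EC50 from variable-slope sigmoidal fit.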

Sequence of human APJ receptor (P35414 whole entry): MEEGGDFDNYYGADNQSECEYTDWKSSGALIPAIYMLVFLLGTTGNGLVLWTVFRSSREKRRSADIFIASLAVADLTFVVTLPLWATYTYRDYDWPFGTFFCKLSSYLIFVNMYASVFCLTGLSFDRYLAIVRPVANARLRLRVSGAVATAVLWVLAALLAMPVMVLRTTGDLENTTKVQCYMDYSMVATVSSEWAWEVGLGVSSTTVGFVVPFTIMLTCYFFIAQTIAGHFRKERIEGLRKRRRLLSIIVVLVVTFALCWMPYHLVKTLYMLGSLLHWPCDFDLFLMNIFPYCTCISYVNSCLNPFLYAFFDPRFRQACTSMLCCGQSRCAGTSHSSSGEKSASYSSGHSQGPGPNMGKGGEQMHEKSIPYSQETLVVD

Row | SMILES | EC50 [nM]
1 | CCCCc1nc(=O)c(S(=O)(=O)c2ccc(-c3ccncc3C)cc2)c(O)n1[C@@H](CC)c1ccc(C#N)c(F)c1 [Example 516, 4-[(1S)-1-{2-butyl-6-hydroxy-5-[4-(3-methylpyridin-4-yl)benzenesulfonyl]-4-oxo-1,4-dihydropyrimidin-1-yl}propyl]-2-fluorobenzonitrile] | 0.01 to 10
2 | CCCCc1nc(=O)c(S(=O)(=O)C2CCN(C(=O)OC(C)(C)C)CC2)c(O)n1-c1c(OC)cccc1OC [Example 105, tert-Butyl 4-((2-butyl-1-(2,6-dimethoxyphenyl)-6-hydroxy-4-oxo-1,4-dihydropyrimidin-5-yl)sulfonyl)piperidine-1-carboxylate] | 0.01 to 10
3 | COC[C@@H](c1cccc(C#N)c1)n1c(COC(C)C)nc(=O)c(S(=O)(=O)c2ccc(-c3ccncc3C#N)cc2)c1O [Example 404, 4-[4-({1-[(1R)-1-(3-cyanophenyl)-2-methoxyethyl]-6-hydroxy-4-oxo-2-[(propan-2-yloxy)methyl]-1,4-dihydropyrimidin-5-yl}sulfonyl)phenyl] pyridine-3-carbonitrile] | 0.01 to 10
4 | CCCCc1nc(=O)c(S(=O)(=O)c2ccc(-c3cccc(C(=O)NC)c3)cc2)c(O)n1[C@@H](CC)c1cccc(C#N)c1 [Example 523, 4′-({2-butyl-1-[(1S)-1-(3-cyanophenyl)propyl]-6-hydroxy-4-oxo-1,4-dihydropyrimidin-5-yl}sulfonyl)-N-methyl-[1,1′-biphenyl]-3-carboxamide] | 0.01 to 10
5 | CCCCc1nc(=O)c(S(=O)(=O)c2ccc(-c3ccnc(F)c3C)cc2)c(O)n1[C@@H](CC)c1ccc(C#N)c(F)c1 [Example 517, 4-[(1S)-1-{2-butyl-5-[4-(2-fluoro-3-methylpyridin-4-yl)benzenesulfonyl]-6-hydroxy-4-oxo-1,4-dihydropyrimidin-1-yl}propyl]-2-fluorobenzonitrile] | 0.01 to 10
6 | CCCCc1nc(=O)c(S(=O)(=O)c2ccc(-c3ccc(C(C)(C)O)cc3)cc2)c(O)n1[C@@H](CC)c1cccc(C#N)c1 [Example 532, 3-[(1S)-1-(2-butyl-6-hydroxy-5-{[4′-(2-hydroxypropan-2-yl)-[1,1′-biphenyl]-4-yl]sulfonyl}-4-oxo-1,4-dihydropyrimidin-1-yl)propyl]benzonitrile] | 10 to 100
7 | C/C=C(/c1cccc(C#N)c1)n1c(CCCC)nc(=O)c(S(=O)(=O)c2ccc(-c3ccncc3C)cc2)c1O [Example 478, 3-[(1Z)-1-{2-butyl-6-hydroxy-5-[4-(3-methylpyridin-4-yl)benzenesulfonyl]-4-oxo-1,4-dihydropyrimidin-1-yl}prop-1-en-1-yl]benzonitrile] | 0.01 to 10
8 | CC[C@@H](c1cccc(C#N)c1)n1c(CC2CC2)nc(=O)c(S(=O)(=O)c2ccc(-c3ccncc3C)cc2)c1O [Example 441, 3-[(1S)-1-[2-(cyclopropylmethyl)-6-hydroxy-5-[4-(3-methylpyridin-4-yl)benzenesulfonyl]-4-oxo-1,4-dihydropyrimidin-1-yl]propyl]benzonitrile] | 0.01 to 10

same assay, conditions: human APJ, cAMP accumulation; read-out: Human APJ cAMP EC50 Potency range

Row | SMILES | EC50 [nM]
9 | CCCCc1nc(=O)c(S(=O)(=O)c2ccc(-c3ccnc(F)c3C)cc2)c(O)n1[C@@H](COC)c1cccc(C#N)c1 [Example 253, 3-[(1R)-1-{2-butyl-5-[4-(2-fluoro-3-methylpyridin-4-yl)benzenesulfonyl]-6-hydroxy-4-oxo-1,4-dihydropyrimidin-1-yl}-2-methoxyethyl] benzonitrile] | 0.01 to 10
10 | CCCCc1nc(=O)c(S(=O)(=O)c2ccc(-c3ccc(F)nc3C)cc2)c(O)n1[C@@H](CC)c1ccc(C#N)cc1 [Example 267, 4-[(1S)-1-{2-butyl-5-[4-(6-fluoro-2-methylpyridin-3-yl)benzenesulfonyl]-6-hydroxy-4-oxo-1,4-dihydropyrimidin-1-yl}propyl]benzonitrile] | 0.01 to 10
11 | COC[C@@H](c1ccccc1)n1c(C2CCCO2)nc(=O)c(S(=O)(=O)c2ccc(-c3ccc(F)nc3)cc2)c1O (single isomer, unassigned) [Example 359] | 0.01 to 10
12 | CCOCc1nc(=O)c(S(=O)(=O)c2ccc(-c3ccncc3C)cc2)c(O)n1[C@@H](CC)c1ccccc1 [Example 306, 2-(ethoxymethyl)-6-hydroxy-5-[4-(3-methylpyridin-4-yl)benzenesulfonyl]-1-[(1S)-1-phenylpropyl]-1,4-dihydropyrimidin-4-one] | 0.01 to 10
13 | CCCCc1nc(=O)c(S(=O)(=O)c2ccc(-c3cccnc3C)cc2)c(O)n1[C@@H](CC)c1cccc2c1OCO2 [Example 263, 1-[(1S)-1-(2H-1,3-benzodioxol-4-yl)propyl]-2-butyl-6-hydroxy-5-[4-(2-methylpyridin-3-yl)benzenesulfonyl]-1,4-dihydropyrimidin-4-one] | 0.01 to 10
14 | CCCCc1nc(=O)c(S(=O)(=O)c2ccc(-c3ccc(F)nc3C)cc2)c(O)n1[C@@H](CC)c1cccc(C#N)c1 [Example 226, 3-[(1S)-1-{2-butyl-5-[4-(6-fluoro-2-methylpyridin-3-yl)benzenesulfonyl]-6-hydroxy-4-oxo-1,4-dihydropyrimidin-1-yl}propyl]benzonitrile] | 0.01 to 10
15 | COC[C@@H](c1ccccc1)n1c(C2CCCO2)nc(=O)c(S(=O)(=O)c2ccc(-c3ccncc3C)cc2)c1O (single isomer, unassigned) [Example 351] | 0.01 to 10
16 | CCOCc1nc(=O)c(S(=O)(=O)c2ccc(-c3cncc(F)c3)cc2)c(O)n1[C@H]1CCc2ccccc21 [Example 322, 1-[(1S)-2,3-dihydro-1H-inden-1-yl]-2-(ethoxymethyl)-5-[4-(5-fluoropyridin-3-yl)benzenesulfonyl]-6-hydroxy-1,4-dihydropyrimidin-4-one] | 0.01 to 10
17 | CCCCc1nc(=O)c(S(=O)(=O)c2ccc(-c3ccncc3C)cc2)c(O)n1[C@@H](CC)c1ccc2c(c1)OCO2 [Example 252, 1-[(1S)-1-(2H-1,3-benzodioxol-5-yl)propyl]-2-butyl-6-hydroxy-5-[4-(3-methylpyridin-4-yl)benzenesulfonyl]-1,4-dihydropyrimidin-4-one] | 0.01 to 10
18 | CCCCc1nc(=O)c(S(=O)(=O)c2ccc(-c3cncc(F)c3)cc2)c(O)n1[C@@H](CC)c1ccc2c(c1)OCO2 [Example 218, 1-[(1S)-1-(2H-1,3-benzodioxol-5-yl)propyl]-2-butyl-5-[4-(5-fluoropyridin-3-yl)benzenesulfonyl]-6-hydroxy-1,4-dihydropyrimidin-4-one] | 0.01 to 10
19 | CCCCc1nc(=O)c(S(=O)(=O)c2ccc(-c3ccnc(F)c3C)cc2)c(O)n1[C@@H](CC)c1cccc(C#N)c1 [Example 230, 3-[(1S)-1-{2-butyl-5-[4-(2-fluoro-3-methylpyridin-4-yl)benzenesulfonyl]-6-hydroxy-4-oxo-1,4-dihydropyrimidin-1-yl}propyl]benzonitrile] | 0.01 to 10

same assay, conditions: human APJ, intracellular cAMP accumulation; read-out: Human APJ cAMP EC50 Potency range

Row | SMILES | EC50 [nM]
20 | CCCCc1nc(=O)c(S(=O)(=O)Cc2ccccc2)c(O)n1-c1c(OC)cccc1OC [Example 5, 2-butyl-1-(2,6-dimethoxyphenyl)-6-hydroxy-5-phenylmethanesulfonyl-1,4-dihydropyrimidin-4-one] | 10 to 100
21 | CCCCc1nc(=O)c(S(=O)(=O)c2ccc(-n3ccccc3=O)cc2)c(O)n1-c1c(OC)cccc1OC [Example 72, 2-butyl-1-(2,6-dimethoxyphenyl)-6-hydroxy-5-[4-(2-oxo-1,2-dihydropyridin-1-yl)benzenesulfonyl]-1,4-dihydropyrimidin-4-one] | 0.01 to 10
22 | COc1cccc(OC)c1-n1c(CCC(C)C)nc(=O)c(S(=O)(=O)c2cccc(-c3ccccc3)c2)c1O [Example 19, 1-(2,6-dimethoxyphenyl)-6-hydroxy-2-(3-methylbutyl)-5-(3-phenylbenzenesulfonyl)-1,4-dihydropyrimidin-4-one] | 0.01 to 10
23 | CCCCc1nc(=O)c(S(=O)(=O)c2ccc(Br)cc2)c(O)n1[C@H]1CCc2ccccc21 [Example 120, 5-(4-bromobenzenesulfonyl)-2-butyl-1-[(1S)-2,3-dihydro-1H-inden-1-yl]-6-hydroxy-1,4-dihydropyrimidin-4-one] | 10 to 100
24 | CCCCc1nc(=O)c(S(=O)(=O)c2ccc(-c3ccc(OC(F)(F)F)cc3)cc2)c(O)n1-c1c(OC)cccc1OC [Example 55, 2-butyl-1-(2,6-dimethoxyphenyl)-6-hydroxy-5-{4-[4-(trifluoromethoxy)phenyl]benzenesulfonyl}-1,4-dihydropyrimidin-4-one] | 0.01 to 10
25 | COC[C@@H](c1ccccc1)n1c(CCC(C)C)nc(=O)c(S(=O)(=O)c2ccc(-c3ccncc3C)cc2)c1O [Example 191, 6-hydroxy-1-[(1R)-2-methoxy-1-phenylethyl]-2-(3-methylbutyl)-5-[4-(3-methylpyridin-4-yl)benzenesulfonyl]-1,4-dihydropyrimidin-4-one] | 0.01 to 10
26 | CCCCc1nc(=O)c(S(=O)(=O)c2ccc(C)cc2)c(O)n1[C@@H](COC)c1ccccc1 [Example 137, 2-butyl-6-hydroxy-1-[(1R)-2-methoxy-1-phenylethyl]-5-(4-methylbenzenesulfonyl)-1,4-dihydropyrimidin-4-one] | 0.01 to 10
27 | CCCCc1nc(=O)c(S(=O)(=O)c2ccc(Br)cc2)c(O)n1[C@H](C)c1cccc(C#N)c1 [Example 121, 3-[(1R)-1-[5-(4-bromobenzenesulfonyl)-2-butyl-6-hydroxy-4-oxo-1,4-dihydropyrimidin-1-yl]ethyl]benzonitrile] | 100 to 300
28 | CCCCc1nc(=O)c(S(=O)(=O)c2ccc(-c3ccc(F)nc3)cc2)c(O)n1[C@H](C)c1ccccc1 [Example 136, 2-butyl-5-[4-(6-fluoropyridin-3-yl)benzenesulfonyl]-6-hydroxy-1-[(1R)-1-phenylethyl]-1,4-dihydropyrimidin-4-one] | 0.01 to 10
29 | CCCCc1nc(=O)c(S(=O)(=O)c2ccc(-c3ccc(F)nc3)cc2)c(O)n1[C@H](C)c1cccc(C#N)c1 [Example 166, 3-[(1R)-1-{2-butyl-5-[4-(6-fluoropyridin-3-yl)benzenesulfonyl]-6-hydroxy-4-oxo-1,4-dihydropyrimidin-1-yl}ethyl]benzonitrile] | 10 to 100
